Laboratory results reported in publication PMC11432795, “Mutagenesis of the Peptide Inhibitor of ASIC3 Channel Introduces Binding to Thumb Domain of ASIC1a but Reduces Analgesic Activity” (Marine Drugs, 2024).
Entries after “also recorded” stand apart in the source; their conditions may differ. Positions of bridges follow the written chain, without caps; N, C: chain ends. Residues, ends and D or L forms follow the SMILES beside them.

How the values were obtained:
[1] = tested on: rat ASIC1a E357A mutant channel; test: Two-electrode voltage clamp, E357A mutant ASIC1a in X. laevis oocytes; assay type: cell-based; details: 10 µM; pH 5.5 stimulus, conditioning pH 7.4, peptide 30 s; mean ± SEM, n = 5
Description: (§1) Figure 5 The pivotal role of residue D355 in the ASIC1a channel for the action of the A23K peptide ligand. (A,B) pH dependence of steady-state desensitization (A) and activation (B) in mutant channels (D355A and E357A) compared to the wild-type channel (wt). Each data point represents results from 5 cells. (C–E) Representative current traces illustrating the effects of A23K at a concentration of 10 µM on wt (C), D355A (D), and E357A (E) channels. Currents were evoked by a pH 5.5 stimulus following a conditioning pH of 7.4, with the peptide applied for 30 s preceding the pH stimulus. (F) Bar graph quantifying the effects depicted in (C,D) as a percentage of the corresponding control currents (n = 5). A value of 1.0, represented by a dotted line, corresponds to control measurements at pH 5.5 for each form of ASIC1a. The data are expressed as mean ± SEM; *** p < 0.001, **** p < 0.0001, ns non-significant vs. control, unpaired t-test.
(§2) To introduce D355A and E357A substitutions, we designed two pairs of primers. For D355A substitution, the forward primer sequence was 5′–[…]–3′, and the reverse primer (R2) for D355A was 5′–CTAGGAAGTCCAGGGCAG–3′. For E357A substitution, the forward primer sequence was 5′–[…]–3′, and the reverse primer for E357A was the same as for D355A (designated as “R2”). […]

[2] = tested on: rat ASIC1a D355A mutant channel; test: Two-electrode voltage clamp, D355A mutant ASIC1a in X. laevis oocytes; assay type: cell-based; details: 10 µM; pH 5.5 stimulus, conditioning pH 7.4, peptide 30 s; n = 5
Description: as §1, §2

[3] = cited from earlier work
Source text: Selective ligands targeting specific ASIC isoforms are invaluable for structural and functional investigations. Peptide ligands sourced from various animal venoms have emerged as such tools. […] Bot ... || The 29-amino acid peptide Ugr9a-1, isolated from the venom of the northern sea anemone Urticina grebelnyi, represents a structural class of toxins termed “boundless β-hairpin”. […] While the significant involvement of ASIC3 channels in acid-induced, chronic neuropathic and inflammatory pain has been extensively reported, the role of ASIC1a remains less clear.

human ASIC3 channels = details: ref [18]; cited from earlier work
Source text: Peptide Ugr9-1 was originally identified as a negative modulator of human ASIC3 channels. […] Combining comparative analysis, molecular modeling techniques, and structural and functional studies, we generated two novel peptide variants derived from Ugr9-1 capable of modulating both ASIC3 and ASIC1a channels.

Row | SMILES | inhibitory effect on E357A mutant channel [1] [%] | inhibitory effect on D355A mutant channel [2] | effect on acid-induced and inflammatory pain ([3]; mouse models, ref [18],[19],[20]) | effect on acid-induced and CFA-induced inflammatory pain ([3]; range of doses, ref [18],[20]) | IC50 (human ASIC3 channels) [µM]
1 | CC[C@H](C)[C@H](N)C(=O)N[C@@H](CO)C(=O)N[C@H](C(=O)N[C@@H](CC(=O)O)C(=O)N1CCC[C@H]1C(=O)N1CCC[C@H]1C(=O)N[C@H]1CSSC[C@@H]2NC(=O)[C@H](CC(N)=O)NC(=O)CNC(=O)[C@H](CO)NC(=O)CNC(=O)[C@H](CC(=O)O)NC(=O)[C@H](CCCNC(=N)N)NC(=O)[C@H](Cc3c[nH]cn3)NC(=O)[C@H](Cc3ccc(O)cc3)NC(=O)[C@H](CSSC[C@@H](C(=O)NCC(=O)N[C@@H](C)C(=O)N[C@H](C(=O)O)C(C)C)NC(=O)CNC(=O)[C@H](Cc3ccc(O)cc3)NC(=O)[C@H](CCCCN)NC(=O)[C@H](CC(=O)O)NC(=O)[C@H](Cc3ccc(O)cc3)NC(=O)[C@H](C(C)C)NC2=O)NC(=O)[C@H](Cc2ccccc2)NC(=O)[C@H](CCCNC(=N)N)NC1=O)[C@@H](C)CC [A23K] (H-ISIDPPCRFCYHRDGSGNCVYDKYGCGAV-OH; disulfide 7-19, 10-26) | 47.1 ± 7.7 | no significant effect; also recorded: entirely abolished |  |  | 
2 | CC[C@H](C)[C@H](N)C(=O)N[C@@H](CO)C(=O)N[C@H](C(=O)N[C@@H](CC(=O)O)C(=O)N1CCC[C@H]1C(=O)N1CCC[C@H]1C(=O)N[C@H]1CSSC[C@@H]2NC(=O)[C@H](CC(N)=O)NC(=O)CNC(=O)[C@H](CO)NC(=O)CNC(=O)[C@H](CC(=O)O)NC(=O)[C@H](CCCNC(=N)N)NC(=O)[C@H](Cc3c[nH]cn3)NC(=O)[C@H](Cc3ccc(O)cc3)NC(=O)[C@H](CSSC[C@@H](C(=O)NCC(=O)N[C@@H](C)C(=O)N[C@H](C(=O)O)C(C)C)NC(=O)CNC(=O)[C@H](Cc3ccc(O)cc3)NC(=O)[C@H](C)NC(=O)[C@H](CC(=O)O)NC(=O)[C@H](Cc3ccc(O)cc3)NC(=O)[C@H](C(C)C)NC2=O)NC(=O)[C@H](Cc2ccccc2)NC(=O)[C@H](CCCNC(=N)N)NC1=O)[C@@H](C)CC [Ugr9-1] (H-ISIDPPCRFCYHRDGSGNCVYDAYGCGAV-OH; disulfide 7-19, 10-26) |  |  | promising results in mitigating acid-induced and inflammatory pain | attenuates acid-induced and CFA-induced inflammatory pain in mice across a range of doses | 10
